Experimental data published in the supplement of paper PMC4862054.

Assays:
Assay in all cases: normalised response (% of control), CellTox Green; higher = less cell death (100 = DMSO, 0 = benzethonium chloride kill control)
Details in all cases: incubation time: 72 h
[1] = tested on: BT-474
Summary of the method: (§1)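 In 384-well plates holding compound at 5 concentrations in 10-fold steps over a 10,000-fold range specific to each compound, breast cancer cell lines were seeded as 20 µl suspension and incubated 72 h. CellTox Green fluorescence was measured at 485/520 nm, after which CellTiter-Glo luminescence was measured following 10 min at room temperature. Plate signals were normalised to 0.1 % DMSO (100) and a positive kill control (0), and each value is the normalised signal at a single concentration.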

[2] = tested on: BT-549
Summary of the method: as §1

[3] = tested on: CAL-120
Summary of the method: as §1

[4] = tested on: CAL-148
Summary of the method: as §1

[5] = tested on: CAL-51
Summary of the method: as §1

[6] = tested on: CAL-85-1
Summary of the method: as §1

[7] = tested on: DU-4475
Summary of the method: as §1

[8] = tested on: HCC1143
Summary of the method: as §1

[9] = tested on: HCC1599
Summary of the method: as §1

[10] = tested on: HCC1937
Summary of the method: as §1

[11] = tested on: HDQ-P1
Summary of the method: as §1

[12] = tested on: Hs578T
Summary of the method: as §1

[13] = tested on: MCF-10A
Summary of the method: as §1

[14] = tested on: MDA-MB-231
Summary of the method: as §1

[15] = tested on: MDA-MB-436
Summary of the method: as §1

[16] = tested on: MDA-MB-453
Summary of the method: as §1

[17] = tested on: MDA-MB-468
Summary of the method: as §1

[18] = tested on: MFM-223
Summary of the method: as §1

| Structure (SMILES) | normalised response [1] [%] | normalised response [2] [%] | normalised response [3] [%] | normalised response [4] [%] | normalised response [5] [%] | normalised response [6] [%] | normalised response [7] [%] | normalised response [8] [%] | normalised response [9] [%] | normalised response [10] [%] | normalised response [11] [%] | normalised response [12] [%] | normalised response [13] [%] | normalised response [14] [%] | normalised response [15] [%] | normalised response [16] [%] | normalised response [17] [%] | normalised response [18] [%] |
| --- | --- | --- | --- | --- | --- | --- | --- | --- | --- | --- | --- | --- | --- | --- | --- | --- | --- | --- |
| Cc1cn(-c2cc(NC(=O)c3ccc(C)c(Nc4nccc(-c5cccnc5)n4)c3)cc(C(F)(F)F)c2)cn1 [Nilotinib] (1000 nM) | 88.8 | 85.9 | 97 | 106 | 86.3 | 101 | 101 | 91.8 | 101 | 131 | 79.2 | 104 | 107 | 68.5 | 82.2 | 106 | 111 | 103 |
| Nc1ccn([C@@H]2O[C@H](CO)[C@@H](O)C2(F)F)c(=O)n1 [Gemcitabine] (100 nM) | 98.1 | 95 | 100 | 48.3 | 32.1 | 87.8 | 98.8 | 111 | 87.5 | 89 | 87.8 | 103 | 94.5 | 101 | 58.6 | 110 | 28.4 | 101 |
| CC(=O)[C@]1(O)Cc2c(O)c3c(c(O)c2[C@@H](O[C@H]2C[C@H](N)[C@H](O)[C@H](C)O2)C1)C(=O)c1ccccc1C3=O [Idarubicin] (1000 nM) | 65.2 | 84.2 | 55.6 | 28.9 | -13.1 | -10.6 | 81.7 | 110 | 109 | 113 | 85.6 | 84 | 34.9 | 77.7 | 83.7 | 106 | 18.9 | 37.8 |
| CCNC(=O)c1noc(-c2cc(C(C)C)c(O)cc2O)c1-c1ccc(CN2CCOCC2)cc1 [NVP-AUY922] (100 nM) | 80 | 140 | 90.3 | 21.6 | 64.1 | 63.1 | 65.5 | 87.9 | 86.9 | 125 | 62.8 | 102 | 57.5 | 46.7 | 67.1 | 96.2 | 31.9 | 78.3 |
| Nc1ccn([C@@H]2O[C@H](CO)[C@@H](O)C2(F)F)c(=O)n1 [Gemcitabine] (1000 nM) | 104 | 88.8 | 96.3 | 61.1 | 55.1 | 73 | 96.9 | 103 | 86.5 | 108 | 108 | 123 | 90.5 | 75.5 | 89.8 | 97.7 | 122 | 104 |
| CC(C)(C)NC(=O)[C@H]1CC[C@H]2[C@@H]3CC[C@H]4NC(=O)C=C[C@]4(C)[C@H]3CC[C@]12C [Finasteride] (1000 nM) | 99.4 | 109 | 99.4 | 104 | 107 | 107 | 103 | 96.8 | 100 | 116 | 113 | 107 | 91.2 | 107 | 102 | 105 | 145 | 93.2 |
| CO[C@@H]1[C@H](N(C)C(=O)c2ccccc2)C[C@H]2O[C@]1(C)n1c3ccccc3c3c4c(c5c6ccccc6n2c5c31)C(=O)NC4 [Midostaurin] (1000 nM) | 83.7 | 54 | 91.7 | 67.4 | -37.7 | 92.1 | 87.7 | 63.8 | 74 | 52.8 | 93 | 64.2 | 93.8 | 61.2 | 77.3 | 107 | -9.58 | 78.8 |
| C=CCn1c(=O)c2cnc(Nc3ccc(N4CCN(C)CC4)cc3)nc2n1-c1cccc(C(C)(C)O)n1 [MK1775] (1000 nM) | 68.6 | 74.9 | 79.1 | -11.1 | 17.8 | 25.9 | 87 | 103 | 67.4 | 103 | 48.7 | 71.9 | 64.5 | -98.4 | 29.9 | 93.3 | 56.5 | 68.5 |
| COc1cc(Nc2c(C#N)cnc3cc(OCCCN4CCN(C)CC4)c(OC)cc23)c(Cl)cc1Cl [Bosutinib] (10000 nM) | 19.3 | 33.1 | 65.6 | 49 | 38.5 | -81.2 | 86.5 | 99.6 | 62 | 32.9 | 31.8 | 72.5 | -50.5 | -62.9 | 25.9 | 34.6 | -35 | 81.3 |
| O=C(CCCCCCC(=O)Nc1ccccc1)NO [Vorinostat] (10000 nM) | 32.6 | 74.8 | 36.3 | 45.5 | -6.76 | 51.7 | 76 | 42.1 | 81.9 | 84.3 | 103 | 60.6 | 98.4 | -55.1 | 77.5 | 82.7 | 25.7 | 80.3 |
| C=CCn1c(=O)c2cnc(Nc3ccc(N4CCN(C)CC4)cc3)nc2n1-c1cccc(C(C)(C)O)n1 [MK1775] (10000 nM) | 44.8 | 14.7 | 53.2 | 22.7 | 41.9 | 4.99 | 85.3 | 14.8 | 66.1 | 65.6 | 40.5 | 33.3 | -5.92 | -15.5 | 67.1 | 89.7 | 45 | 67.2 |
